Measured values as given in ChEMBL document CHEMBL3593188, “Exploring the size adaptability of the B ring binding zone of the colchicine site of tubulin with para-nitrogen substituted isocombretastatins” (Eur J Med Chem, 2015).
Values after ≈ are worked out from the molar mass of the structure shown. Active and inactive are the calls of the source. The calls are words filed in the database; no cut-off is given here.

Tests used:
[1] = Inhibition of calf brain tubulin polymerization after 20 mins by spectrophotometric analysis; set-up: species or system Bos taurus
[2] = tested on: HT-29; experiment: Cytotoxicity against human HT-29 cells assessed as inhibition of cell proliferation after 72 hrs by XTT assay; assay type: functional, cell-based; settings: HT-29, 72 h
[3] = tested on: HeLa; experiment: Cytotoxicity against human HeLa cells assessed as inhibition of cell proliferation after 72 hrs by XTT assay; assay type: functional, cell-based
[4] = Aqueous solubility of the compound in phosphate buffer at pH 7 after 48 hrs by spectrophotometric analysis; assay type: physicochemical
[5] = tested on: HL-60; experiment: Cytotoxicity against human HL60 cells assessed as inhibition of cell proliferation after 72 hrs by XTT assay; assay type: functional, cell-based; settings: HL-60, 72 h
[6] = tested on: HT-29; experiment: Cell cycle arrest in human HT-29 cells assessed as accumulation at G2/M phase at 100 nM after 24 hrs by propidium iodide staining-based flow cytometric analysis; assay type: functional
[7] = tested on: HCT-116; experiment: Induction of microtubule disruption in human HCT116 cells at 50 nM after 24 hrs by DAPI staining-based confocal microscopic analysis; assay type: cell-based
[8] = tested on: HT-29; experiment: Cell cycle arrest in human HT-29 cells assessed as accumulation at G2/M phase at 50 nM after 24 hrs by propidium iodide staining-based flow cytometric analysis; assay type: functional
[9] = tested on: HT-29; experiment: Inhibition of autophagy in human HT-29 cells assessed as accumulation of slower migrating LC3-I band at 35 nM after 24 to 72 hrs by Western blot analysis; assay type: functional, cell-based
[10] = tested on: HT-29; experiment: Inhibition of autophagy in human HT-29 cells assessed as absence of faster migrating LC3-II band decay at 35 nM after 24 to 72 hrs by Western blot analysis; assay type: functional, cell-based

IC50 [1] [nM] | solubility at 48 h [4] [µg/mL] | Structure (SMILES) | IC50 [2] [nM] | IC50 [3] [nM] | IC50 [5] [nM] | Activity [6] | Activity [7] | Activity [8] [%] | inhibition [9] | inhibition [10]
> 5000 | 13.7 (≈ 38.4 µM) | COc1cc(/C(=N/O)c2ccc(N3CCCC3)cc2)cc(OC)c1OC | > 1000 | 600 | 400 |  |  |  |  | 
1100 | 1.3 (≈ 3.83 µM) | C=C(c1ccc(N2CCCC2)cc1)c1cc(OC)c(OC)c(OC)c1 | 600 | 200 | 400 | Active |  |  |  | 
> 5000 | 84 (≈ 248 µM) | C=C(c1ccc(N(C)C)c(C#N)c1)c1cc(OC)c(OC)c(OC)c1 | 960 | 400 | 800 |  |  |  |  | 
> 10000 | 74 (≈ 224 µM) | COc1cc(/C(=N/O)c2ccc(N(C)C)cc2)cc(OC)c1OC | 10000 | 800 | 600 |  |  |  |  | 
1500 | 1.8 (≈ 4.48 µM) | C/C=C(/c1cc(OC)c(OC)c(OC)c1)c1ccc2c(c1)c1ccccc1n2CC | 560 | 700 | 400 | inactive |  |  |  | 
900 | 2.5 (≈ 6.45 µM) | C=C(c1cc(OC)c(OC)c(OC)c1)c1ccc2c(c1)c1ccccc1n2CC | 200 | 80 | 90 | Active |  |  |  | 
> 20000 | 3.7 (≈ 10.3 µM) | COc1cc(C(=O)c2ccc(N(C)C)c([N+](=O)[O-])c2)cc(OC)c1OC | > 1000 | > 1000 | > 1000 |  |  |  |  | 
1600 | 4.2 (≈ 10.4 µM) | CCn1c2ccccc2c2cc(/C(=N/O)c3cc(OC)c(OC)c(OC)c3)ccc21 | 300 | 100 | 100 | inactive |  |  |  | 
> 5000 | 123 (≈ 345 µM) | C=C(c1ccc(N(C)C)c(C=NO)c1)c1cc(OC)c(OC)c(OC)c1 | > 1000 | 900 | 1000 |  |  |  |  | 
> 5000 | 11 (≈ 28.5 µM) | C=C(c1cc(OC)c(OC)c(OC)c1)c1ccc(N(C)C)c(C2OCCO2)c1 | > 1000 | 600 | 800 |  |  |  |  | 
> 20000 | 8.9 (≈ 25.9 µM) | COc1cc(C(=O)c2ccc(N(C)C)c(C=O)c2)cc(OC)c1OC | > 1000 | > 1000 | > 1000 |  |  |  |  | 
> 20000 |  | COc1cc(C(=O)c2ccc(N(C)C)cc2)cc(OC)c1OC | 400 | 90 | 200 |  |  |  |  | 
> 10000 | 107 (≈ 313 µM) | C=C(c1ccc(N(C)C)c(C=O)c1)c1cc(OC)c(OC)c(OC)c1 | > 1000 | 800 | 900 |  |  |  |  | 
1600 | 2 (≈ 5.14 µM) | CCn1c2ccccc2c2cc(C(=O)c3cc(OC)c(OC)c(OC)c3)ccc21 | 400 | 700 | 700 | inactive |  |  |  | 
> 5000 |  | C=C(c1ccc(N(C)C)c(N)c1)c1cc(OC)c(OC)c(OC)c1 | 600 | 500 | 400 |  |  |  |  | 
> 5000 | 2.6 (≈ 7.62 µM) | COc1cc(C(=O)c2ccc(N3CCCC3)cc2)cc(OC)c1OC | > 1000 | 800 | 800 |  |  |  |  | 
> 5000 |  | COc1cc(C(=O)c2ccc(N(C)C)c(N)c2)cc(OC)c1OC | 900 | 600 | 700 |  |  |  |  | 

Structure (SMILES) | IC50 [1] [nM] | solubility at 48 h [4] [µg/mL] | IC50 [2] [nM] | IC50 [3] [nM] | IC50 [5] [nM] | Activity [6] | Activity [7] | Activity [8] [%] | inhibition [9] | inhibition [10]
COc1ccc(/C=C\c2cc(OC)c(OC)c(OC)c2)cc1O [COMBRETASTATIN A4] | 3000 |  | 30 |  |  |  |  |  |  | 
C=C(c1ccc(N(C)C)cc1)c1cc(OC)c(OC)c(OC)c1 | 1900 | 30 (≈ 95.7 µM) | 70 | 40 | 10 |  | Active | >85 | Active | Active
